Entries after “also recorded” stand apart in the source; their conditions may differ. Structures can show the parent of a compound that is named as a salt.
Legend:
Ovine Laminitis = assay: Histological evaluation of treatment in an acute model of ovine laminitis (lactic acid infusion + Compound 48/80); type: in vivo; conditions: Group 2: Nedocromil sodium (42 mg/kg) + lactic acid infusion + Compound 48/80 (1 mg/kg); anesthetized sheep; hematoxylin and eosin sections
Protocol: Laminitis can be induced in vivo through systemic acidosis. This study initiated laminitis in anesthetized sheep by inducing acidosis for the purpose of measuring the level of inflammation in the hoof vascular bed associated with initiation of laminitis. Adult Suffolk sheep (at least 6 months old) weighing at least 60 kg were obtained for the study. Animals were housed and research procedures were performed according to the standards provided in the Guide for the Care and Use of Laboratory Animals, 7th Edition, Revised 1996, National Academy Press, Washington, DC. During acclimation, sheep were pasture-housed with access to feed, water, and shelter. Sheep were fed a standard diet of hay and alfalfa in addition to pasture feed. One day prior to surgery, each animal was transferred to an indoor facility with single animal runs. […] The runs had automatic watering devices and animals were fed in steel feeders. Animals were acclimated for a minimum of one day prior to surgery. Sheep were fasted approximately 16 hours overnight on the day prior to surgery. Two sheep served as terminal controls after prolonged infusion of lactic acid and the mast cell activator 48/80. Systemic blood pH was lowered to approximately […], the animals euthanized, and the hooves observed histopathologically. […]

Bovine Laminitis = type: in vivo, Holstein calves
Excerpt: To test the effectiveness of nedocromil sodium to prevent laminitis in cattle, 4 Holstein calves weighing between 325 and 350 pounds were selected for the study and treated as shown in Table 11.
Starting with day one through day four, and continuing day six through day seven, calves 1 and 2 received Nedocromil sodium pretreatment (1.5 grams infused through the jugular vein) while calves 3 and 4 received no treatment. On each of days one through four and days six through seven, blood samples were obtained from all four calves. No treatments were administered on days eight through ten. On day eleven, calves 1 and 2 were administered 2 grams of Nedocromil sodium. Shortly thereafter, 3.5 pounds of corn starch and 1.5 pounds of sugar mixed in water along with 6×10^11 lactic acid producing and histamine producing organisms were administered to all four calves by releasing the mixture into the rumen of each animal. The process of administering the carbohydrate plus lactic acid producing and histamine producing organisms is known to induce acidosis in cattle.
The calves' behavior was observed, blood samples taken, and temperatures measured over the next 72 hours.

[1] = tested on: Rattus norvegicus basophilic leukemia cells; assay: Lactic acid-stimulated histamine release from basophilic leukemia cells (GC-MS); type: cell-based
Protocol: The immortal cell culture line of Rattus norvegicus basophilic leukemia cells was subcultured and incubated at 37° C. overnight. […] After incubation, 50 μL of the supernatant was removed from the cells and stored at −80° C. or derivatized for GC-MS analysis.
The supernatant was mixed with 135 μl of an acetone reaction solution (ethanol, triethylamine, and 9-methylanthracene) in a 0.5 ml microtube. After mixing for 10 seconds, 55 μl of a chloroform derivatization solution containing […] ethylchloroformate was added and mixed for an additional 10 seconds. Then, 350 μL purified water was added and the two phases allowed to separate for 60 seconds. The organic phase was aspirated and placed into a 2 mL autosampler amber vial with glass inserts and dried with anhydrous sodium sulfate before being capped with GC vial snap caps.
The organic phase samples were dried and analyzed on an Agilent GC/MS 6890/5975C system with MS Chem Station software. Gas chromatography was carried out using a fused silica DB-WAX precolumn (0.2 m×0.25 mm, dF=0.25 μm), and a fused silica DB-WAX separation column (4 m×0.25 mm, dF=0.25 μm). Ultra high purity He was used as the carrier gas.
The GC parameters were set as follows: injection time was set to 5 μl using the splitless mode. After 120 seconds the split valve was opened with a 40 mL/minute split flow and front inlet temperature was held at 150° C. The oven temperature was ramped, starting at 60° C. for 2 minutes then increased at 50° C./minute to 160° C., then increased at 20° C./minute to 260° C. and held for 2.5 minutes. The MS detector was maintained at 300° C., with a solvent delay of 7 minutes, ion m/z 192 at 7.0-8.7 minutes, dwell time 100 ms, low-mass resolution; ion m/z 166, m/z 154 at 8.7-11.5 minutes, dwell time per ion 100 ms, low-mass resolution. […]

## CCCc1c2oc(C(=O)O)cc(=O)c2cc2c(=O)cc(C(=O)O)n(CC)c12 [Nedocromil sodium, disodium salt of 9-ethyl-6,9-dihydro-4,6-dioxo-10-propyl-4H-pyrano[3,2-g]-quinoline-2,8-dicarboxylic acid]
Ovine Laminitis
  Findings (histology of hoof sections, inflammation): No inflammation was observed; also recorded: effectively reduced short-term inflammation; also recorded: No significant findings
Bovine Laminitis; bovine, in vivo
  Toxicity and/or side effects: lack of toxicity and/or side effects
Bovine Laminitis; calves 1 and 2, nedocromil sodium 1.5 g via jugular vein on days 1-4 and 6-7, 2 g on day 11 before carbohydrate mixture, observed 72 hours
  Protection from lactic acidosis: protected from lactic acidosis
[1]; Lactic acid + 1 μl nedocromil sodium
  Histamine Levels: 15.810
[1]; Lactic acid + 2 μl nedocromil sodium
  Histamine Levels: 14.470
[1]; lactic acid-stimulated cells, increasing levels of nedocromil sodium
  Inhibition of histamine release: effective in inhibiting histamine release

Source: patent US9333191B2, “Mast cell stabilizers to prevent or treat laminitis” (WILLOWCROFT PHARM INC., priority 2004, dated 2016)
